Data set [1] in a line: FaSSIF solubility pH 6.5. The format is physicochemical.
Data set [2] concerns T. gondii RH and Prugniaud strain tachyzoites. In words: Tachyzoite infection in mice. Format: in vivo, Toxoplasma gondii. The conditions noted are these: for efficacy against Prugniaud (Type 2) tachyzoites in mice: 25 mg/kg daily. As to the method: Ability of compounds to abrogate tachyzoites multiplication was assessed using an in vivo imaging system (IVIS). To facilitate this we have T. gondii strains from each of the 3 major lineages expressing the luciferase gene. In these studies mice are injected intraperitoneally with tachyzoites and parasite proliferation followed up to 30 days post infection. Removal of brains at 30 days allows parasite quantitation by bioluminescence ex vivo using the IVIS. As an alternative method to improve screening efficiency and scalability it is possible for initial screening to use zebrafish with histopathology and visualization as shown in FIG. 6. Quantitation also was performed using QT PCR as described for mice or in translucent Casper zebrafish with parasites with fluors or luciferase to screen rapidly. Tachyzoites and bradyzoites in cysts were used for IP infection and compounds given intraperitoneally.
To test type II parasites, we used T. gondii Me49 and Prugneaud parasites^S39.

≈ marks a conversion by molar mass, not a printed value. Entries after “also recorded” stand apart in the source; their conditions may differ.

By solubility is commonly meant how much of the substance goes into solution per volume.

Compound `Cc1[nH]c2c(c(=O)c1-c1ccc(Oc3ccccc3)cc1)CCCC2` [MJM170] returned a solubility in data set [1] (FaSSIF, pH 6.5, fassif) of 9.8 µM (≈ 3.25 µg/mL). Further, the “improved FaSSIF/FeSSIF (pH 6.5) solubility” value in data set [1] (relative to ELQ 271) is 3 fold. Moreover, the “efficacy against Prugniaud (Type 2) tachyzoites in mice” value in data set [2] was “highly efficacious”; in data set [2] (listed as MJM 170), “reduces Type 2 parasites”. Further, the “efficacy against RH tachyzoites in mice” value in data set [2] (25 mg/kg daily intraperitoneally, RH-YFP) was “highly efficacious; also recorded: eliminates active infection”. In addition, the toxicity in mice entry in data set [2] (25 mg/kg for 5 days) is recorded as “without toxicity”.
